Data set [1] deals with five isoforms of CYP450. Briefly: CYP450 inhibition, five isoforms. In kind it is in vitro ADME.
The test system of data set [2] is cortical pyramidal neurons in rat coronal brain slice explants co-transfected with YFP and Tau-4R. Kind of data set: AD brain slice model (Tau-4R). In kind it is cell-based. The text has this: The cortical regions of each brain slice were then scored for numbers of healthy pyramidal neurons remaining. Data are plotted as means±SEM. Graph represents an average of 3 independent experimental runs. Significant difference is denoted with * with respect to the Tau-4R condition by ANOVA followed by Dunnett's post hoc comparison test at p<0.05.
To see if the mechanism of LOC14 protection can ameliorate other neurodegenerative disease phenotypes, we used a brain slice model of Alzheimer's disease (AD) in which the degeneration of cortical pyramidal neurons is induced via transfected tau protein containing four repeats of the microtubulin-binding domain (Tau-4R). Rat coronal brain slice explants were co-transfected with YFP and Tau-4R and treated with LOC14, benzoisothiazolone, or DMSO vehicle-only for 3 days. The cortical region of each brain slice was then scored for number of healthy pyramidal neurons remaining.

Data set [3] deals with Adenosine A2A (Homo sapiens, UniProt P29274). Briefly: Off-target panel, Adenosine A2A. As to conditions: Conc. 3 μM. It counts as binding.
In data set [4] the target is Adrenergic α1A (Rattus norvegicus, UniProt P43140). Briefly: Off-target panel, Adrenergic α1A. In kind it is binding. As to conditions: Conc. 3 μM.
Data set [5] has as its target Adrenergic α1B (Rattus norvegicus, UniProt P15823). Kind of data set: Off-target panel, Adrenergic α1B. The settings on record: Conc. 3 μM. In kind it is binding.
The target in data set [6] is Adrenergic α2A (Homo sapiens, UniProt P08913). Briefly: Off-target panel, Adrenergic α2A. It counts as binding. The settings on record: Conc. 3 μM.
Data set [7] addresses Adrenergic β1 (Homo sapiens, UniProt P08588). Briefly: Off-target panel, Adrenergic β1. In kind it is binding. As to conditions: Conc. 3 μM.
Data set [8] concerns the target Adrenergic β2 (Homo sapiens, UniProt P07550). Kind of data set: Off-target panel, Adrenergic β2. In kind it is binding. The settings on record: Conc. 3 μM.
The target of data set [9] is Cannabinoid CB1 (Homo sapiens, UniProt P21554). Kind of data set: Off-target panel, Cannabinoid CB1. In kind it is binding. The settings on record: Conc. 3 μM.
For data set [10], the target named is Dopamine D2S (Homo sapiens, UniProt P14416). Briefly: Off-target panel, Dopamine D2S. As to conditions: Conc. 3 μM. It counts as binding.
For data set [11], the target named is Histamine H1 (Homo sapiens, UniProt P35367). Kind of data set: Off-target panel, Histamine H1. In kind it is binding. The settings on record: Conc. 3 μM.
Data set [12] deals with Muscarinic M2 (Homo sapiens, UniProt P08172). Briefly: Off-target panel, Muscarinic M2. As to conditions: Conc. 3 μM. In kind it is binding.
Data set [13] concerns the target Muscarinic M3 (Homo sapiens, UniProt P20309). Kind of data set: Off-target panel, Muscarinic M3. It counts as binding. As to conditions: Conc. 3 μM.
For data set [14], the target named is Prostanoid EP4 (Homo sapiens, UniProt P35408). Kind of data set: Off-target panel, Prostanoid EP4. In kind it is binding. As to conditions: Conc. 3 μM.
Data set [15] has as its target T1, GR (Homo sapiens, UniProt P04150).
T1 construct: CEREP (CRO panel)
Kind of data set: Safety47 panel nuclear hormone receptor GR. In kind it is cell-based. As to conditions: 3 μM. The text has this: (§1) LOC14 was also submitted for testing in CEREP's Safety47 panel. CEREP is a CRO specializing in preclinical research, discovery and development of new pharmaceutical drugs.

The target in data set [16] is T2, HTR3A (Homo sapiens, UniProt P46098).
T2 construct: CEREP (CRO panel)
Kind of data set: Safety47 panel ion channel HTR3A. It counts as cell-based. The settings on record: 3 μM.
From the text: as §1

The target in data set [17] is T3, KvLQT1/minK (Homo sapiens, UniProt P51787).
T3 construct: CEREP (CRO panel)
Kind of data set: Safety47 panel ion channel KvLQT1/minK. It counts as cell-based. The settings on record: 3 μM.
From the text: as §1

Data set [18] concerns the target T4, PDE3A (Homo sapiens, UniProt Q14432).
T4 construct: CEREP (CRO panel)
Kind of data set: Safety47 panel non-kinase enzyme PDE3A. It counts as biochemical. As to conditions: Inhibitor mode; 3 μM.
From the text: as §1

For data set [19], the system named is parental ST14A cells. Kind of data set: Rescue of parental ST14A cells (39° C., serum starved, CellTiter-Glo). In kind it is cell-based, rat. As to conditions: 48 hours. From the text:
Having elucidated the molecular mechanism of LOC14's binding to PDI, we next tested whether PDI modulation with LOC14 would be effective in neurodegenerative disease models. First, we evaluated LOC14's neuroprotection in rat neuron-like PC12 cells stably transfected with an inducible plasmid for truncated mutant huntingtin protein (mHTT^Q103). […] We next evaluated the activity of LOC14 in cells that more closely represent the medium-size spiny neurons affected in Huntington Disease patients. We used rat embryonic day 14 striatal neuronal cells (ST14A) immortalized by transduction of temperature-sensitive SV40 large T antigen (Cattaneo and Conti, 1998; Ehrlich et al. 2001; Rigamonti et al. 2000). Under serum deprivation and at 39° C., where large T antigen is degraded, ST14A cells undergo cell death within 48-72 hours. This death was rescued by treatment with LOC14 (FIG. 13B).

Data set [20] has as its target Potassium Channel hERG (Homo sapiens, UniProt Q12809). Kind of data set: in vitro.
From the text: Additionally, we tested LOC14 in CEREP's Safety47 panel, an in vitro pharmacological profiling to determine off-target liabilities that might exist against 47 human targets associated with safety issues (Table 3 and Table 4).

Molecules are shown by their SMILES. Entries after “also recorded” stand apart in the source; their conditions may differ.

T2 sequence (P46098 24-478): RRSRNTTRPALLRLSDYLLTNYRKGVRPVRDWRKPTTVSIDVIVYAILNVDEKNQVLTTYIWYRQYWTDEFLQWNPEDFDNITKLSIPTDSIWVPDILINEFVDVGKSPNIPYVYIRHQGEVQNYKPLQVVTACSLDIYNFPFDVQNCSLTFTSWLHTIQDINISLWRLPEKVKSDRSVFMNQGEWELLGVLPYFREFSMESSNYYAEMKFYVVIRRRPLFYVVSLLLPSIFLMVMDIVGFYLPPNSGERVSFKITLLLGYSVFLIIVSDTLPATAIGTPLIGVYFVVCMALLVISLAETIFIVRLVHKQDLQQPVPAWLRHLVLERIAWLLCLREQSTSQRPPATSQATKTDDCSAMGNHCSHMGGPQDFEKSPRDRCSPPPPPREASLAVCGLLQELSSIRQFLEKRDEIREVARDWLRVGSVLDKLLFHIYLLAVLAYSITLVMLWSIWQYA
T1 sequence (P04150 whole entry): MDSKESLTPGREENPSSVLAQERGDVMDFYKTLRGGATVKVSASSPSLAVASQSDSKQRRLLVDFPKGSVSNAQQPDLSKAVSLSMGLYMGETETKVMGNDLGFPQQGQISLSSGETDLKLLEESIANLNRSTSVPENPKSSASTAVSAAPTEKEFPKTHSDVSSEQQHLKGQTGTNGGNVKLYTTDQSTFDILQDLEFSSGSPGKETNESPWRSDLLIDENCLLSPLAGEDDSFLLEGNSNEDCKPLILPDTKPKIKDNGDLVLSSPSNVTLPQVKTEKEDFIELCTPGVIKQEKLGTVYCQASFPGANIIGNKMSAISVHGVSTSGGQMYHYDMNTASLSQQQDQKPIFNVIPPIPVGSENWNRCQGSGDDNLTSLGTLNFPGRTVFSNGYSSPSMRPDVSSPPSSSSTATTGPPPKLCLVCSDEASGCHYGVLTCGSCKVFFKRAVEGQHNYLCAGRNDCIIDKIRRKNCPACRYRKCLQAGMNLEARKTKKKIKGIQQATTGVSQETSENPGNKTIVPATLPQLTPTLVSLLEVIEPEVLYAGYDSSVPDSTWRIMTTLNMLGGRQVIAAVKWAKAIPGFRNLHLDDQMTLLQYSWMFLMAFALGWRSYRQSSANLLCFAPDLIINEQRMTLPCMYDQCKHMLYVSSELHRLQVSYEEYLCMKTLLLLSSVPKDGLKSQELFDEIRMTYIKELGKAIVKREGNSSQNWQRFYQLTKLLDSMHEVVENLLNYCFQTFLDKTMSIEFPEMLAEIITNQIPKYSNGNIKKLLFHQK
Sequence of Potassium Channel hERG (Q12809 whole entry): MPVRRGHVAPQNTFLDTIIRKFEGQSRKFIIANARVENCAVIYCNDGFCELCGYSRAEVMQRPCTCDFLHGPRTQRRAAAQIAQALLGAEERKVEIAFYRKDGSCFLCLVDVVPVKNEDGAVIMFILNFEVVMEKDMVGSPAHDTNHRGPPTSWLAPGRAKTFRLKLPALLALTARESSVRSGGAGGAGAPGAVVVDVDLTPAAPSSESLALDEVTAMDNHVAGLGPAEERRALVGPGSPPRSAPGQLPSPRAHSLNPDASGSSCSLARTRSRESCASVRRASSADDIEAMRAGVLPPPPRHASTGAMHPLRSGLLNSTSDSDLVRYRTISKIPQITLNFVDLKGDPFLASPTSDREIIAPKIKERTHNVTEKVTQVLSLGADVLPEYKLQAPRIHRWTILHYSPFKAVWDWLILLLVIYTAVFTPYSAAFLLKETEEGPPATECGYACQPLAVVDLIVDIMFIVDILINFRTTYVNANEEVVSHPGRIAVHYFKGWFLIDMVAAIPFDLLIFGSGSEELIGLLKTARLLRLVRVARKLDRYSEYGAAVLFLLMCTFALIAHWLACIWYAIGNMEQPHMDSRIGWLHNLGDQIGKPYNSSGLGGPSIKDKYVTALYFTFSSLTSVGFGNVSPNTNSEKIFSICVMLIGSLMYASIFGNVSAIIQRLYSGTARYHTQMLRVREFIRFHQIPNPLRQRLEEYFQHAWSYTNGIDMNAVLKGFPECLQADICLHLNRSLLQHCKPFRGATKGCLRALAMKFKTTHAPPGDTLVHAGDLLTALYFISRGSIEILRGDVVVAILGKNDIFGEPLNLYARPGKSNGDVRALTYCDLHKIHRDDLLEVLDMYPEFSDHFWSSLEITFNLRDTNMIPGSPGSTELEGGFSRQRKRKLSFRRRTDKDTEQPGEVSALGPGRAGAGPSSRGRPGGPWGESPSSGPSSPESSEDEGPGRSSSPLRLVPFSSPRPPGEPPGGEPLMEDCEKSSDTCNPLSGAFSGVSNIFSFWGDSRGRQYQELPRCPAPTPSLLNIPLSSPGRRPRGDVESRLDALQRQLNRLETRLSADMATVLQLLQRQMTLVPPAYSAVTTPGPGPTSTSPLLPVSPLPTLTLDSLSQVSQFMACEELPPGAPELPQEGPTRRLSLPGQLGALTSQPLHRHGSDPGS
Sequence of Adrenergic β2 (P07550 whole entry): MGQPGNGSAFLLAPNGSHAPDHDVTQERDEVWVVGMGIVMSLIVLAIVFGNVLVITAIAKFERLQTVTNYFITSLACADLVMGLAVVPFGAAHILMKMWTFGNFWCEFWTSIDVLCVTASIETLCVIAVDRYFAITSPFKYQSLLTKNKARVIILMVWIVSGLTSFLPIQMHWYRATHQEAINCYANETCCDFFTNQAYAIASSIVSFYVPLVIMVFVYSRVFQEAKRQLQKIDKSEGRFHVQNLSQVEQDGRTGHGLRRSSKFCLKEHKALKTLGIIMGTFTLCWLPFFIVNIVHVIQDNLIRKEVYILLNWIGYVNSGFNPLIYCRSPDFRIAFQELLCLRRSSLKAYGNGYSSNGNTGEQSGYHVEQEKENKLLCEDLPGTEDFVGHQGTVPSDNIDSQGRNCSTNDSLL
Sequence of Adrenergic α1A (P43140 whole entry): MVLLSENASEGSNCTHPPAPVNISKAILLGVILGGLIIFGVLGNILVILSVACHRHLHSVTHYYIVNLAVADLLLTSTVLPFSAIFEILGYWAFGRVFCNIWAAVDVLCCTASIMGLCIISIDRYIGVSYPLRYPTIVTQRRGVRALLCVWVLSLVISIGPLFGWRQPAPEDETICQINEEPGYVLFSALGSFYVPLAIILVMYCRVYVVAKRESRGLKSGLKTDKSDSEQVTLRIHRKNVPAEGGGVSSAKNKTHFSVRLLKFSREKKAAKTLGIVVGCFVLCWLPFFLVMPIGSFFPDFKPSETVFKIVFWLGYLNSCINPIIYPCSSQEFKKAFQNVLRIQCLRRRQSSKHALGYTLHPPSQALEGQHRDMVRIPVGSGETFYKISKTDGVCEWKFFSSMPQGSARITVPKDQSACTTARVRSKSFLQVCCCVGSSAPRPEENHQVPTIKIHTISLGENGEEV
Sequence of Adrenergic α1B (P15823 whole entry): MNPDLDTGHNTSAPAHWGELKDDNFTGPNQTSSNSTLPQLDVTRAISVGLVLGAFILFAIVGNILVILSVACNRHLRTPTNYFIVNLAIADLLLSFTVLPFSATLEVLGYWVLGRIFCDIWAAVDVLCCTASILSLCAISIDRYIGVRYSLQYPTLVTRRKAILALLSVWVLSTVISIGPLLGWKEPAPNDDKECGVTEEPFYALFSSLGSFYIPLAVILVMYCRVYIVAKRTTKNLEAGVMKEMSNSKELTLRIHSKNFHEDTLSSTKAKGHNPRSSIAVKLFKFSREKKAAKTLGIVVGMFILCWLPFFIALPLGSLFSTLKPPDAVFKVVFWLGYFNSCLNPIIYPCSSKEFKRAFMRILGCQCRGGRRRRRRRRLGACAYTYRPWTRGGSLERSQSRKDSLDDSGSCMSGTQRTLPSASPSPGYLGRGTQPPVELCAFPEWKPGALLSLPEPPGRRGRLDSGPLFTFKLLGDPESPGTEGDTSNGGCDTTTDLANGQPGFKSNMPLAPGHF
Sequence of Adrenergic β1 (P08588 whole entry): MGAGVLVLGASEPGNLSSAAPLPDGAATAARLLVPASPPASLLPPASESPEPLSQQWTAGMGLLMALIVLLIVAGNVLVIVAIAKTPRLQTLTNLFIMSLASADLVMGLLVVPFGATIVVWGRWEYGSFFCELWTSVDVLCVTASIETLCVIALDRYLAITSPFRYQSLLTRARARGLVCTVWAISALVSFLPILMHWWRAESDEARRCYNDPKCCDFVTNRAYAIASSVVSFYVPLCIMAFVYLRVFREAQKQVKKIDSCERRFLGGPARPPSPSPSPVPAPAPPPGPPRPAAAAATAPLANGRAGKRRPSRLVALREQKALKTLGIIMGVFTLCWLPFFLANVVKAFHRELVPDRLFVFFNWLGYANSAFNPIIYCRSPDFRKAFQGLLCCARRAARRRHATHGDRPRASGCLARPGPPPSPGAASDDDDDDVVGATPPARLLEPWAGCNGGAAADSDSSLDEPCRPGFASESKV
Sequence of Adenosine A2A (P29274 whole entry): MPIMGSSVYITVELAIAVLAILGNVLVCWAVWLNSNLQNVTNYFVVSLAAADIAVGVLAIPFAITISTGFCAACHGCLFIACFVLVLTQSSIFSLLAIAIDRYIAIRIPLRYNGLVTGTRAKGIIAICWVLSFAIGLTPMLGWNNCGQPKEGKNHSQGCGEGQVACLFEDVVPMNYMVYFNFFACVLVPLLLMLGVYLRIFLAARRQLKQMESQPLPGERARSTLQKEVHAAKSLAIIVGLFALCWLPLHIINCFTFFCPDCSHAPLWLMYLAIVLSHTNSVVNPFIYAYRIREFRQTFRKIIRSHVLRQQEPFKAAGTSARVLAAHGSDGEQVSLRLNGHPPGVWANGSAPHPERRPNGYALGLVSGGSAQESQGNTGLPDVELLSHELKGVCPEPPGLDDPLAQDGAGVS

In the case of `O=C(C1CC1)N1CCN(Cn2sc3c(F)cccc3c2=O)CC1` [LC-43], the “inhibition of the five isoforms of CYP450” value in data set [1] is given as “does not show any inhibition”. Also, the “protection of pyramidal neurons in AD brain slice” value in data set [2] (3 days treatment) is “dose-dependent rescue; also recorded: robust neuroprotection”. In addition, in data set [2] (AD brain slice assay), the “concentration that provided peak rescue” value is 10 µM.
In general, inhibition refers to the drop in the measured response relative to a control, in per cent. For `O=C(C1CC1)N1CCN(Cn2sc3ccccc3c2=O)CC1` [LOC14], the inhibition at 3 µM in [3] was -4%; in data set [4], -14%; in data set [5], 2%; in data set [6] it was 7%; in [7] it was 7%; in data set [8], 8%. Besides, the inhibition at 3 µM in [9] was -22%; in [10], 0%; in data set [11], 27%; in [12] it was -3%; in [13], -4%; in data set [14] it was 32%. Moreover, the inhibition at 3 µM in [20] is 10%. The Average stood at 0.0 in data set [15] (Agonist mode); 0.1 in data set [15] (Antagonist mode); 0.0 in [16] (Blocker mode); 2.5 in [16] (Opener mode); 0.0 in [17] (Blocker mode); 9.8 in data set [17] (Opener mode). In addition, the Average in data set [18] is given as 0.0. Moreover, the EC100 in [19] came to 24 nM.

Source of the values: patent publication US20220380383A1, “NEUROPROTECTIVE PDI MODULATING SMALL MOLECULES AND METHODS OF USE THEREOF” (THE TRUSTEES OF COLUMBIA UNIVERSITY IN THE CITY OF NEW YORK, priority 2018, published 2022).
